Literature values in patent US12486292B2, “Prodrug platform useful to deliver amines, amides and phenols” (Changchun Changcheng Pharmaceutical Technology Co., LTD, priority 2019, dated 2025).

Settings: phase I human clinical trials, oral dosing

Which Hepatotoxicity does the source give for `CCCC(CCC)C(=O)Nc1ccn([C@@H]2O[C@H](CO)[C@@H](O)C2(F)F)c(=O)n1` [LY2334737] here?
The Hepatotoxicity was “observed in some patients”.
